In the supplement of paper PMC10307832:

What was measured:
Experiment in all cases: relative viability (nuclei count vs DMSO), 5 days (fraction); higher = more cells survive
Seliciclib + Trametinib = compound: CC[C@H](CO)Nc1nc(NCc2ccccc2)c2ncn(C(C)C)c2n1 [Seliciclib] + CC(=O)Nc1cccc(-n2c(=O)n(C3CC3)c(=O)c3c(Nc4ccc(I)cc4F)n(C)c(=O)c(C)c32)c1 [Trametinib] (partner 0.02 µM)
How it was run: (§1)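 One day after seeding in 1536-well plates, lung cancer cell lines were dosed by pin tool. Dosing was either single-drug or a fixed anchor-drug dose plus five library-drug doses (not always all listed) in √10 steps. After 5 days, nuclei were stained in one fix-and-stain step and counted on 4× images, and relative viability is the nuclei count of treated wells over that of vehicle wells, given as the median of duplicate plates.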

Seliciclib + OSI-027 = compound: CC[C@H](CO)Nc1nc(NCc2ccccc2)c2ncn(C(C)C)c2n1 [Seliciclib] + COc1cccc2cc(-c3nc([C@H]4CC[C@H](C(=O)O)CC4)n4ncnc(N)c34)[nH]c12 [OSI-027] (partner 0.5 µM)
How it was run: as §1

Seliciclib + Crizotinib = compound: CC[C@H](CO)Nc1nc(NCc2ccccc2)c2ncn(C(C)C)c2n1 [Seliciclib] + C[C@@H](Oc1cc(-c2cnn(C3CCNCC3)c2)cnc1N)c1c(Cl)ccc(F)c1Cl [Crizotinib] (partner 1 µM)
How it was run: as §1

Seliciclib + Phenformin = compound: CC[C@H](CO)Nc1nc(NCc2ccccc2)c2ncn(C(C)C)c2n1 [Seliciclib] + N=C(N)NC(=N)NCCc1ccccc1 [Phenformin] (partner 250 µM)
How it was run: as §1

Cell Line	relative viability (Seliciclib + Trametinib; first compound 0.08 µM)	relative viability (Seliciclib + Trametinib; first compound 0.253 µM)	relative viability (Seliciclib + Trametinib; first compound 0.8 µM)	relative viability (Seliciclib + Trametinib; first compound 2.53 µM)	relative viability (Seliciclib + Trametinib; first compound 8 µM)	relative viability (Seliciclib + OSI-027; first compound 0.08 µM)	relative viability (Seliciclib + OSI-027; first compound 0.253 µM)	relative viability (Seliciclib + OSI-027; first compound 0.8 µM)	relative viability (Seliciclib + OSI-027; first compound 2.53 µM)	relative viability (Seliciclib + OSI-027; first compound 8 µM)	relative viability (Seliciclib + Crizotinib; first compound 0.08 µM)	relative viability (Seliciclib + Crizotinib; first compound 0.253 µM)	relative viability (Seliciclib + Crizotinib; first compound 0.8 µM)	relative viability (Seliciclib + Crizotinib; first compound 2.53 µM)	relative viability (Seliciclib + Crizotinib; first compound 8 µM)	relative viability (Seliciclib + Phenformin; first compound 0.08 µM)	relative viability (Seliciclib + Phenformin; first compound 0.253 µM)	relative viability (Seliciclib + Phenformin; first compound 0.8 µM)	relative viability (Seliciclib + Phenformin; first compound 2.53 µM)	relative viability (Seliciclib + Phenformin; first compound 8 µM)
201T	0.701	0.716	0.694	0.727	0.632	0.815	0.708	0.857	0.467	0.688	1.04	0.996	1.04	1.02	0.95	0.413	0.441	0.47	0.383	0.418
A-427	0.767	0.816	0.797	0.678	0.586	0.419	0.615	0.442	0.331	0.401	0.833	0.924	0.795	0.905	0.785	0.325	0.354	0.307	0.276	0.295
ABC-1	–	–	–	–	–	0.611	0.378	0.431	0.32	0.387	1.2	1.46	0.814	1.08	0.495	0.251	0.257	0.234	0.281	0.222
BEN	0.976	0.809	1.1	0.991	1.04	0.295	0.287	0.343	0.309	0.276	0.753	–	0.822	0.929	0.832	0.268	0.249	0.125	0.284	0.227
CAL-12T	0.367	0.337	0.324	0.257	0.2	0.746	0.504	0.763	0.321	0.357	0.624	–	0.846	0.687	0.461	0.604	0.789	0.612	0.53	0.376
COR-L23	0.577	0.464	0.577	0.566	0.471	0.808	0.604	0.7	0.671	0.627	0.61	0.806	0.693	0.671	0.519	0.435	0.534	0.465	0.378	0.382
COR-L 105	0.469	0.36	0.427	0.451	0.401	0.722	0.622	0.754	0.56	0.646	0.846	0.698	0.698	0.806	0.6	0.466	0.565	0.549	0.389	0.481
Calu-6	–	–	–	–	–	–	–	–	–	–	0.773	0.846	0.825	0.956	0.668	–	–	–	–	–
ChaGo-K-1	0.838	0.87	0.894	0.873	0.745	0.663	0.367	0.587	0.356	0.451	1.14	1.01	1.12	1.12	0.488	0.485	0.389	0.508	0.422	0.384
EKVX	0.373	0.252	0.286	0.31	0.328	–	0.781	0.661	0.565	0.537	0.743	1.14	0.877	1.11	0.817	–	0.255	0.189	0.215	0.199
EMC-BAC-2	0.883	0.934	0.809	0.721	0.778	0.401	0.317	0.43	0.253	0.347	0.735	0.744	0.824	0.728	0.534	0.505	0.515	0.524	0.436	0.479
EPLC-272H	0.298	0.269	0.309	0.258	0.244	0.328	0.271	0.265	0.225	0.265	0.88	0.729	0.746	0.903	0.636	0.329	0.335	0.295	0.219	0.333
H3255	0.629	0.52	0.652	0.631	0.494	0.596	0.642	0.626	0.532	0.579	0.787	0.892	1.01	0.965	0.727	0.357	0.357	0.368	0.322	0.348
HARA	0.675	0.719	0.565	0.828	0.44	0.496	0.22	0.378	0.377	0.325	1.06	1.16	1.06	1.21	0.638	0.424	0.423	0.469	0.47	0.393
HCC-15	0.393	0.343	0.369	0.37	0.357	0.691	0.757	0.584	0.427	0.442	0.798	0.856	0.806	0.869	0.599	0.491	0.519	0.419	0.383	0.352
HCC-44	1.09	1.17	0.999	0.933	1.06	0.488	0.451	0.508	0.302	0.508	0.709	0.842	0.778	0.821	0.698	0.309	0.126	0.375	0.0882	0.174
HCC-78	0.737	0.94	0.746	0.83	0.513	0.411	0.426	0.358	0.34	0.326	0.364	0.333	0.327	0.262	0.274	0.706	0.795	0.65	0.536	0.474
HCC-366	0.332	0.253	0.368	0.317	0.239	0.978	0.43	0.825	0.513	0.625	0.477	0.418	0.497	0.946	0.354	0.618	0.716	0.571	0.62	0.506

Cell Line	relative viability (Seliciclib + Trametinib; first compound 0.08 µM)	relative viability (Seliciclib + Trametinib; first compound 0.253 µM)	relative viability (Seliciclib + Trametinib; first compound 0.8 µM)	relative viability (Seliciclib + Trametinib; first compound 2.53 µM)	relative viability (Seliciclib + Trametinib; first compound 8 µM)	relative viability (Seliciclib + OSI-027; first compound 0.08 µM)	relative viability (Seliciclib + OSI-027; first compound 0.253 µM)	relative viability (Seliciclib + OSI-027; first compound 0.8 µM)	relative viability (Seliciclib + OSI-027; first compound 2.53 µM)	relative viability (Seliciclib + OSI-027; first compound 8 µM)	relative viability (Seliciclib + Crizotinib; first compound 0.08 µM)	relative viability (Seliciclib + Crizotinib; first compound 0.253 µM)	relative viability (Seliciclib + Crizotinib; first compound 0.8 µM)	relative viability (Seliciclib + Crizotinib; first compound 2.53 µM)	relative viability (Seliciclib + Crizotinib; first compound 8 µM)	relative viability (Seliciclib + Phenformin; first compound 0.08 µM)	relative viability (Seliciclib + Phenformin; first compound 0.253 µM)	relative viability (Seliciclib + Phenformin; first compound 0.8 µM)	relative viability (Seliciclib + Phenformin; first compound 2.53 µM)	relative viability (Seliciclib + Phenformin; first compound 8 µM)
HCC-827	0.494	0.519	0.525	0.533	0.365	0.844	0.612	0.757	0.801	0.794	0.909	0.914	0.911	0.931	0.839	0.4	0.422	0.402	0.435	0.351
HOP-62	0.377	0.302	0.377	0.418	0.431	0.891	0.705	0.952	0.57	0.777	1.02	0.981	0.976	0.781	0.898	0.665	0.699	0.75	0.713	0.576
IA-LM	–	–	–	–	–	–	–	–	–	–	0.596	1.17	0.92	0.906	0.622	–	–	–	–	–
LC-2-ad	0.9	0.976	0.867	0.907	0.79	0.902	0.901	0.827	0.453	0.799	0.442	0.456	0.479	0.46	0.404	0.552	0.579	0.593	0.368	0.514
LCLC-97TM1	0.244	0.173	0.226	0.178	0.155	0.442	0.424	0.714	0.108	0.182	0.295	0.366	0.463	–	0.252	0.467	0.354	0.493	0.138	0.381
LCLC-103H	0.666	0.711	0.647	0.681	0.682	0.452	0.47	0.456	0.319	0.487	1.02	1.04	0.955	0.975	0.919	0.393	0.337	0.347	0.308	0.316
LK-2	0.747	0.575	0.69	0.693	0.577	0.225	0.203	0.191	0.175	0.194	0.246	0.227	0.205	0.227	0.249	0.475	0.415	0.358	0.243	0.274
LOU-NH91	–	0.702	0.786	0.745	0.752	0.741	0.693	0.674	0.592	0.644	0.721	0.743	0.678	0.673	0.685	0.609	0.666	0.671	0.589	0.552
LU99A	0.586	0.484	0.5	0.485	0.393	0.286	0.265	0.323	0.221	0.323	0.477	0.544	0.52	0.422	0.4	0.898	0.937	0.817	0.705	0.714
LXF-289	0.65	0.725	0.646	0.661	0.627	0.781	0.667	0.769	0.421	0.762	0.82	0.871	0.779	0.835	0.638	0.52	0.505	0.501	0.507	0.496
NCI-H23	0.428	0.343	0.406	0.297	0.308	0.645	0.408	0.652	0.267	0.505	0.454	0.427	0.432	0.42	0.48	0.83	0.809	0.784	0.672	0.603
NCI-H322M	0.536	0.487	0.495	0.473	0.399	0.561	0.482	0.516	0.348	0.43	0.85	1.06	0.839	1.06	0.554	0.861	0.967	0.693	0.673	0.536
NCI-H522	0.735	0.672	0.778	0.673	0.713	0.818	0.63	0.685	0.623	0.644	–	–	–	–	–	0.731	0.655	0.645	0.599	0.709
NCI-H1395	1.04	0.843	0.968	–	1.04	0.728	0.576	0.606	0.612	0.587	–	–	–	–	–	0.433	0.438	0.455	0.453	0.428
NCI-H1563	–	–	–	–	–	0.766	0.709	0.725	0.747	0.792	0.832	0.73	0.889	0.899	0.836	0.754	0.63	0.651	0.626	0.664
NCI-H1703	–	–	–	–	–	–	–	–	–	–	0.643	0.609	0.563	0.635	0.556	–	–	–	–	–
NCI-H1793	0.364	0.433	0.461	0.411	0.291	0.299	0.219	0.252	0.194	0.238	–	–	–	–	–	0.378	0.307	0.378	0.32	0.227
SW 900	0.632	0.833	0.734	0.514	0.524	0.59	0.396	0.62	0.45	0.397	–	–	–	–	–	0.62	0.6	0.404	0.643	0.418
